Experimental data: US20240058350A1, “Methods of Treatment” (Arena Pharmaceuticals, Inc., priority 2020, published 2024)

Legend:
human 5-HT2A = human 5-HT2A (Homo sapiens, UniProt P28223); assay: affinity for human 5-HT2A; assay type: binding
Excerpt: (§1) M1 refers to N-(4-(2-(2-hydroxyethylamino)ethoxy)-3-(1-methyl-1H-pyrazol-5-yl)phenyl)-3-methoxybenzamide. M2 refers to N-(4-(2-aminoethoxy)-3-(1-methyl-1H-pyrazol-5-yl)phenyl)-3-methoxybenzamide. Compound 1, or a pharmaceutically acceptable salt, hydrate, or solvate thereof, inhibits serotonin-mediated vasoconstriction and inhibits serotonin-mediated amplification of platelet aggregation.

5-HT2B receptors = 5-HT2B receptors (Homo sapiens, UniProt P41595); assay: affinity for 5-HT2B receptors; assay type: binding
Excerpt: as §1

5-HT2C receptors = target: T1, 5-HT2C receptors (Homo sapiens, UniProt P28335); assay: affinity for 5-HT2C receptors; assay type: binding
T1 sequence (P28335 33-458): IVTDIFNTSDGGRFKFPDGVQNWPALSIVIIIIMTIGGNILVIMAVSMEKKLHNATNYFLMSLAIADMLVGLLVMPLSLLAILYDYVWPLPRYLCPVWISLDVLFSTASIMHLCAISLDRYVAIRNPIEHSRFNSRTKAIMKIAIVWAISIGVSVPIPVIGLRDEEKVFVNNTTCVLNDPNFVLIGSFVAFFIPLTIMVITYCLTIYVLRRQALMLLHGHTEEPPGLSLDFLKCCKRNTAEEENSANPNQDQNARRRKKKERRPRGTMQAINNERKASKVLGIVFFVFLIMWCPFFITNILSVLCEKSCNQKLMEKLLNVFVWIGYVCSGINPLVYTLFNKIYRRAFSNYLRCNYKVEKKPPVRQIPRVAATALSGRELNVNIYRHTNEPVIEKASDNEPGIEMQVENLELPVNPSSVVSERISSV
Excerpt: as §1

[1] = system: serotonin-mediated vasoconstriction; assay: serotonin-mediated vasoconstriction
Excerpt: as §1

[2] = system: serotonin-mediated amplification of platelet aggregation; assay: serotonin-mediated amplification of platelet aggregation; assay type: cell-based
Excerpt: as §1

[3] = Clinical Trial 1: phase 1 single oral dose escalation, PK; assay type: in vivo, human; conditions: healthy subjects; for half-life compared with the parent compound: single oral dose of Compound 1 HCl
Procedure: (§2) A phase 1, randomized, double-blind, placebo-controlled, single-dose escalation study was conducted to assess the tolerability, PK, and PD of the HCl salt of Compound 1 at doses of 1 to 320 mg (adjusted free-base concentration) administered orally as a single dose to a total of 91 healthy subjects.

[4] = system: 5-HT-mediated amplification of platelet aggregation; assay: Clinical Trial 1: PD, platelet aggregation with ADP with and without 5-HT; assay type: in vivo, human; conditions: single oral doses above 1 mg, healthy subjects
Procedure: as §2
(§3) PD assessment consisted of measuring pre- and post-dose platelet aggregation using an in vitro assay with ADP with and without 5-HT. The degree of thrombin receptor activating peptide (TRAP)-induced platelet aggregation inhibition between groups was similar. However, Compound 1 inhibited 5-HT-mediated amplification of platelet aggregation at doses above 1 mg.

[5] = system: thrombin receptor activating peptide (TRAP)-induced platelet aggregation; assay: Clinical Trial 1: PD, TRAP-induced platelet aggregation; assay type: in vivo, human; conditions: single oral dose versus placebo, healthy subjects
Procedure: as §2, §3

[6] = Clinical Trial 2: phase 1 multiple ascending oral dose TID for 7 days, PK; assay type: in vivo, human; conditions: for accumulation ratio as measured by AUCtau: 60 and 80 mg Compound 1 oral TID, after 7 days; for metabolite exposures with increasing Compound 1 doses / metabolite to parent ratios with increasing Compound 1 doses: oral TID for 7 days
Procedure: A phase 1, randomized, double-blind, placebo-controlled, multiple-ascending dose-escalation study was conducted to assess the safety, tolerability, PD, and steady state PK of the HCl salt of Compound 1 from 5 to 80 mg (adjusted free-base concentration) administered orally TID for 7 days in a total of 50 healthy subjects.

[7] = Clinical Trial 3: phase 1 single ascending IV dose, PK; assay type: in vivo, human
Procedure: (§4) A phase 1, randomized, blinded, sponsor-open, placebo-controlled, single ascending dose (SAD) study was conducted to assess the safety, tolerability, PK, and PD of single IV doses of Compound 1 and two active metabolites (M1 and M2) in healthy adult subjects. Five dose cohorts (each cohort composed of six Compound 1 subjects and two placebo subjects) were evaluated.
(§5) Subjects received a single dose of Compound 1 or placebo. Each cohort included a sentinel group of two subjects (one active and one placebo) dosed at least 24 hours before the remaining six subjects (five active and one placebo). The remaining subjects were dosed following review of all available safety and tolerability data from the sentinel subjects. Safety, tolerability, and PK data were reviewed after the completion of each dose cohort and prior to escalation to the next dose cohort. PD data were reviewed prior to dosing subsequent cohorts. Selection of dose for subsequent cohorts was based on the data from previous cohort(s). Following administration of Compound 1 or placebo, subjects were confined for 72 hours to monitor safety and to collect PK/PD samples. Cardiodynamic electrocardiogram (ECG) sampling were collected pre-dose and through 24 hours post-dose in each cohort. The clinic contacted subjects on Day 11 (1 day) to determine if any adverse event (AE) occurred since discharge.
(§6) IV doses of placebo […], 1 mg Compound 1 (n=6), 5 mg Compound 1 (n=6), 10 mg Compound 1 (n=5), 20 mg Compound 1 (n=6), 30 mg Compound 1 (n=6), or 40 mg Compound 1 (n=6) were administered. The doses of 1 mg, 5 mg, 10 mg, and 20 mg of Compound 1 were administered by slow bolus infusion over a period of two minutes, while the doses of 30 mg and 40 mg of Compound 1 were administered over a period of five minutes. The PD effects of the single doses were examined immediately after dosing and 4 hours after dosing.

[8] = system: 5-HT-mediated amplification of platelet aggregation; assay: Clinical Trial 3: PD, 5-HT-mediated amplification of platelet aggregation; assay type: in vivo, human; conditions: single IV doses of 20 mg and greater
Procedure: as §4
as §5, with “discharge. […]” for “discharge.”

[9] = Clinical Trial 3: safety and tolerability of single IV doses; assay type: in vivo, human
Procedure: as §4, §5, §6

[10] = all doses, Day 1 versus Day 7, oral TID for 7 days

human 5-HT2A, sequence (P28223 whole entry): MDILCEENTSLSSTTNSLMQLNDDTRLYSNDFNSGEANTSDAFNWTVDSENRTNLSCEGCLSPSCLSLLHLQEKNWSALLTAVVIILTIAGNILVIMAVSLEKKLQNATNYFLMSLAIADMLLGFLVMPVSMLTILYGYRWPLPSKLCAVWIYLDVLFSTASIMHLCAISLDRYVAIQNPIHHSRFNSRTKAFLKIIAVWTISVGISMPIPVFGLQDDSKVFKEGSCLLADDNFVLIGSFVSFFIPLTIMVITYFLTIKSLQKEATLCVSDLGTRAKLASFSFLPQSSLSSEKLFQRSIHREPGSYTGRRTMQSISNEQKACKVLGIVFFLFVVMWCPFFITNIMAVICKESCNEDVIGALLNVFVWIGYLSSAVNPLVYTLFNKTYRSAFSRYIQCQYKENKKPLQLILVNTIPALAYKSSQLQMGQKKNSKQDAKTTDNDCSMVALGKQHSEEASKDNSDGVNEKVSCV
5-HT2B receptors, sequence (P41595 whole entry): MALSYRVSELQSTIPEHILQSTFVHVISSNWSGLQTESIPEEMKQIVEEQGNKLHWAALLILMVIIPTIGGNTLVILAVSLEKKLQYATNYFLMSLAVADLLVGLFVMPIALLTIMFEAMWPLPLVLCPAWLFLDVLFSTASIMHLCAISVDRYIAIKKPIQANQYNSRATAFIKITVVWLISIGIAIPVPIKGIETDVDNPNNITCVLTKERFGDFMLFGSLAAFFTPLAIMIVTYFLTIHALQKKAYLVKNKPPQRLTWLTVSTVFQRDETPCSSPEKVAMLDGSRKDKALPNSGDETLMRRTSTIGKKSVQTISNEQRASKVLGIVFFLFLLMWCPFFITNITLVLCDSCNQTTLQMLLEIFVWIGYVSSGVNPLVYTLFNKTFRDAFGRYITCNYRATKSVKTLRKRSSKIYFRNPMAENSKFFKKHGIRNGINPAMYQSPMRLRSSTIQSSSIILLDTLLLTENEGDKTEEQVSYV

affinity for human 5-HT2A (human 5-HT2A)	affinity for 5-HT2B receptors (5-HT2B receptors)	affinity for 5-HT2C receptors (5-HT2C receptors)	metabolite-to-parent ratios as the dose was escalated ([3]; single oral dose 1 to 320 mg)	accumulation ratio as measured by AUCtau [6]	metabolite exposures with increasing Compound 1 doses [6]	metabolite to parent ratios with increasing Compound 1 doses [6]	SMILES	half-life compared with the parent compound [3]	further results
high affinity	no appreciable affinity	no appreciable affinity					COc1cccc(C(=O)Nc2ccc(OCCN3CCOCC3)c(-c3ccnn3C)c2)c1 [Compound 1, 3-methoxy-N-[3-(2-methylpyrazol-3-yl)-4-(2-morpholin-4-ylethoxy)phenyl]benzamide]		serotonin-mediated vasoconstriction [1]: inhibits; serotonin-mediated amplification of platelet aggregation [2]: inhibits; absorption ([3]; single oral dose 1 to 320 mg): rapidly absorbed at all doses; half-life as the dose was escalated ([3]; single oral dose 1 to 320 mg): half-life increased; plasma exposure measures versus dose ([3]; single oral dose 1 to 320 mg): increased in a greater than dose proportional manner; 5-HT-mediated amplification of platelet aggregation [4]: inhibited; degree of TRAP-induced platelet aggregation inhibition between groups [5]: similar; AUC accumulation ratio [6, 10]: less than 2; Cmax accumulation ratio [6, 10]: less than 2; absorption ([6]; oral 5 to 80 mg TID for 7 days, healthy subjects): rapidly absorbed at all doses; exposure as measured by AUC versus dose ([6]; oral TID, 5 and 10 mg): dose proportional; exposure as measured by AUC versus dose ([6]; oral TID, 40, 60, and 80 mg, Day 1 and Day 7): greater than dose proportional; Cmax ([7]; human, plasma, 40 mg single IV dose, healthy adult subjects, read-out: mean observed Cmax): 1840 ng/mL; half-life ([7]; human, plasma, single IV doses 1 to 40 mg, healthy adult subjects, read-out: mean terminal elimination half-life): 1 to 2 h; dose dependence of mean terminal elimination half-life ([7]; single IV doses 1 to 40 mg): dose-dependent; inhibition of 5-HT-mediated amplification of platelet aggregation [8]: Near-maximal inhibition; epistaxis, subjects affected ([9]; Compound 1 group, single IV dose): one subject; bleeding-related TEAEs, Bleeding Academic Research Consortium (BARC) Type ([9]; single IV doses): ≤ 1; discontinuation of treatment ([9]; single IV doses 1 to 40 mg): No subjects discontinued treatment
high affinity	no appreciable affinity	no appreciable affinity	decreased	approximately 2	increased	decreased	COc1cccc(C(=O)Nc2ccc(OCCNCCO)c(-c3ccnn3C)c2)c1 [Compound M1, N-(4-(2-(2-hydroxyethylamino)ethoxy)-3-(1-methyl-1H-pyrazol-5-yl)phenyl)-3-methoxybenzamide]	longer half-lives than the parent compound	
high affinity	no appreciable affinity	no appreciable affinity	decreased	approximately 2	increased	decreased	COc1cccc(C(=O)Nc2ccc(OCCN)c(-c3ccnn3C)c2)c1 [Compound M2, N-(4-(2-aminoethoxy)-3-(1-methyl-1H-pyrazol-5-yl)phenyl)-3-methoxybenzamide]	longer half-lives than the parent compound	
